Assay results from patent US20130295185A1, “COMPOUNDS AND METHODS FOR INDUCING APOPTOSIS IN CANCER CELLS USING A BH3 ALPHA-HELICAL MIMETIC” (H. Lee Moffitt Cancer Center and Research Institute, Inc., priority 2011, published 2013).

Tests used:
[1] = tested on: A549 cells; experiment: BH3-M6 and CEP-1612 alone or in combination in A549 cells (MTT, TUNEL, PARP cleavage); format: cell-based, human
Description: FIG. 7 is a series of images illustrating BH3-M6 sensitizes A549 cells to the proteasome inhibitor CEP-1612 to induce apoptosis. A549 cells were treated with the indicated concentrations of either drug alone or in combination and then processed for various assays as described in EXPERIMENTAL PROCEDURES. (A) Cell viability as measured by MTT assay after 72 h of treatment, error bars indicate standard deviations of triplicates. (B) apoptosis as determined by TUNEL assay after 48 h of treatment. (C) PARP cleavage after 24 hours of drug treatment.
Release of cytochrome c from isolated mitochondria was measured as described by Takahashi et al. (Takahashi, Y., Karbowski, M., Yamaguchi, H., Kazi, A., Wu, J., Sebti, S. M., Youle, R. J., and Wang, H. G. (2005) Mol Cell Biol 25, 9369-9382) Cell-free caspase-3/-7 activity and the extent of PARP cleavage was determined as described previously. (Kazi, A., Smith, D. M., Zhong, Q., and Dou, Q. P. (2002) Mol Pharmacol 62, 765-771) MTT (3-(4,5-dimethylthiazol-2-yl)-2,5-diphenyltetrazolium bromide) and TUNEL assays were performed according to Kazi et al., both of which are incorporated herein by reference. (Kazi, A., Lawrence, H., Guida, W. C., McLaughlin, M. L., Springett, G. M., Berndt, N., Yip, R. M. L., and Sebti, S. M. (2009) Cell Cycle 8, 1940-1951)
To determine whether BH3-M6 sensitizes cells to apoptosis induced by other stimuli, the inventors treated A549 cells with BH3-M6 and CEP-1612 (Sun, J., Nam, S., Lee, C. S., Li, B., Coppola, D., Hamilton, A. D., Dou, Q. P., and Sebti, S. M. (2001) Cancer Res 61, 1280-1284), either alone or in combination. BH3-M6 and CEP-1612 alone had little effect on cell viability (about 20% and about 28%, respectively) (FIG. 7A) and apoptosis (about 5% and about 8%, respectively) (FIG. 7B). […] The results from FIG. 7C were obtained after about 24 hours of drug treatment, whereas those from FIG. 5C were obtained after about 48 hours of drug treatment.

[2] = tested on: BH3 binding groove of Bcl-2, Bcl-XL, and Bcl-w; settings: cited from earlier work
[3] = tested on: Mcl-1 and Bfl-1; settings: cited from earlier work
[4] = tested on: wild-type and Bax/Bak-deficient fibroblasts; settings: cited from earlier work

Row | Structure (SMILES) | inhibition of cell viability ([1]; A549, MTT, 72 h) | induction of apoptosis ([1]; A549, TUNEL, 48 h) | PARP cleavage ([1]; A549, immunoblot, about 24 hours) | affinity for BH3 binding groove of Bcl-2, Bcl-XL, and Bcl-w [2] | binding to Mcl-1 and Bfl-1 [3] | killing of wild-type vs Bax/Bak-deficient cells [4]
1 | CC(C)C[C@@H](C=O)NC(=O)[C@H](CCCN=C(N)N[N+](=O)[O-])NC(=O)C(CCCCCCCCN1C(=O)c2ccccc2C1=O)C1CCCC1 (stereo partly drawn) [CEP-1612] | about 28% | about 8% | but not either drug alone | – | – | –
2 | CN(C)CC[C@H](CSc1ccccc1)Nc1ccc(S(=O)(=O)NC(=O)c2ccc(N3CCN(Cc4ccccc4-c4ccc(Cl)cc4)CC3)cc2)cc1[N+](=O)[O-] [ABT-737] | – | – | – | high affinity | only binds weakly | kills only wild-type, but not Bax/Bak-deficient cells
